Source: US20060153932A1, “Method of treating hyperphosphataemia using lanthanum hydroxycarbonate” (Shire Pharmaceuticals, Inc., priority 2004, published 2006)

Tests used:
[1] = 4-week oral toxicity study in rats; settings: 103 or 1030 mg lanthanum/kg/day for 4 weeks
Description: A study was conducted to assess the toxicity of lanthanum hydroxycarbonate. Rats were dosed orally with lanthanum hydroxycarbonate (103 or 1030 mg lanthanum/kg/day), lanthanum carbonate tetrahydrate (103 or 1030 mg lanthanum/kg/day) or vehicle for 4 weeks.

[2] = In vitro phosphorus binding of lanthanum compounds
Description: In order to evaluate the efficacy of lanthanum hydroxycarbonate as a phosphate binder, the in vitro phosphorus binding of lanthanum hydroxycarbonate and lanthanum carbonate tetrahydrate were measured using the methodology described below:
The equivalent of 1 g elemental lanthanum as either lanthanum hydroxycarbonate or as lanthanum carbonate tetrahydrate was added to 500 mL of 0.1N HCl at 37° C. and adjusted to pH 1 with HCl which contained 300 mg of phosphorus. The preparation was stirred and sampled at regular intervals. This sample was filtered and the filtrate measured for phosphorus content using a Sigma Diagnostics Kit for Inorganic Phosphorus determination. The loss of phosphorus from the filtrate represents the amount of phosphorus bound by lanthanum and precipitated then retained on the filter.

| Structure (SMILES) | Plasma exposure to lanthanum [1] | rates of in vitro phosphate binding as compared to lanthanum carbonate tetrahydrate ([2]; dosed at the same level of elemental lanthanum) | more effective at binding phosphate in vitro, compared to lanthanum carbonate tetrahydrate ([2]; pH 1, same level of elemental lanthanum) |
| --- | --- | --- | --- |
| O.O.O.O.O=C([O-])[O-].O=C([O-])[O-].O=C([O-])[O-].[La+3].[La+3] [lanthanum carbonate tetrahydrate, Lanthanum carbonate tetrahydrate] | similar | – | – |
| O=C([O-])[O-].[La+3].[OH-] [lanthanum hydroxycarbonate] | – | improved rates of in vitro phosphate binding | approximately 50% |
